Results taken from ChEMBL document CHEMBL4396916, “Novel potent substituted 4-amino-2-thiopyrimidines as dual VEGFR-2 and BRAF kinase inhibitors” (Eur J Med Chem, 2019).

Tests used:
[1] = test system: MCF7; experiment: Cytotoxicity against human MCF7 cells expressing VEGFR2 and wild type BRAF measured after 48 hrs by sulforhodamine B assay; format: functional, cell-based; settings: MCF7, 48 h
[2] = test system: HCT-15; experiment: Growth inhibition of human HCT15 cells at 10 uM incubated for 48 hrs by sulforhodamine B assay relative to control; format: functional; settings: HCT-15, 48 h, read-out: GI
[3] = test system: CCRF-CEM; experiment: Growth inhibition of human CCRF-CEM cells at 10 uM incubated for 48 hrs by sulforhodamine B assay relative to control; format: functional; settings: read-out: GI
[4] = test system: MCF7; experiment: Growth inhibition of human MCF7 cells at 10 uM incubated for 48 hrs by sulforhodamine B assay relative to control; format: functional; settings: MCF7, 48 h, read-out: GI
[5] = test system: MOLT-4; experiment: Growth inhibition of human MOLT4 cells at 10 uM incubated for 48 hrs by sulforhodamine B assay relative to control; format: functional; settings: MOLT-4, 48 h, read-out: GI
[6] = test system: HOP-92; experiment: Growth inhibition of human HOP92 cells at 10 uM incubated for 48 hrs by sulforhodamine B assay relative to control; format: functional; settings: HOP-92, 48 h, read-out: GI
[7] = test system: UO-31; experiment: Growth inhibition of human UO31 cells at 10 uM incubated for 48 hrs by sulforhodamine B assay relative to control; format: functional; settings: UO-31, 48 h, read-out: GI
[8] = test system: MDA-MB-468; experiment: Growth inhibition of human MDA-MB-468 cells at 10 uM incubated for 48 hrs by sulforhodamine B assay relative to control; format: functional; settings: MDA-MB-468, 48 h, read-out: GI
[9] = molecular target: Vascular endothelial growth factor receptor 2 (Homo sapiens, UniProt P35968); experiment: Inhibition of human N-terminal GST tagged VEGFR-2 expressed in baculovirus infected Sf9 cells using poly (Glu,Tyr) 4:1 as substrate in presence of ATP by Kinase-Glo luminescence assay
Vascular endothelial growth factor receptor 2, sequence (P35968 whole entry): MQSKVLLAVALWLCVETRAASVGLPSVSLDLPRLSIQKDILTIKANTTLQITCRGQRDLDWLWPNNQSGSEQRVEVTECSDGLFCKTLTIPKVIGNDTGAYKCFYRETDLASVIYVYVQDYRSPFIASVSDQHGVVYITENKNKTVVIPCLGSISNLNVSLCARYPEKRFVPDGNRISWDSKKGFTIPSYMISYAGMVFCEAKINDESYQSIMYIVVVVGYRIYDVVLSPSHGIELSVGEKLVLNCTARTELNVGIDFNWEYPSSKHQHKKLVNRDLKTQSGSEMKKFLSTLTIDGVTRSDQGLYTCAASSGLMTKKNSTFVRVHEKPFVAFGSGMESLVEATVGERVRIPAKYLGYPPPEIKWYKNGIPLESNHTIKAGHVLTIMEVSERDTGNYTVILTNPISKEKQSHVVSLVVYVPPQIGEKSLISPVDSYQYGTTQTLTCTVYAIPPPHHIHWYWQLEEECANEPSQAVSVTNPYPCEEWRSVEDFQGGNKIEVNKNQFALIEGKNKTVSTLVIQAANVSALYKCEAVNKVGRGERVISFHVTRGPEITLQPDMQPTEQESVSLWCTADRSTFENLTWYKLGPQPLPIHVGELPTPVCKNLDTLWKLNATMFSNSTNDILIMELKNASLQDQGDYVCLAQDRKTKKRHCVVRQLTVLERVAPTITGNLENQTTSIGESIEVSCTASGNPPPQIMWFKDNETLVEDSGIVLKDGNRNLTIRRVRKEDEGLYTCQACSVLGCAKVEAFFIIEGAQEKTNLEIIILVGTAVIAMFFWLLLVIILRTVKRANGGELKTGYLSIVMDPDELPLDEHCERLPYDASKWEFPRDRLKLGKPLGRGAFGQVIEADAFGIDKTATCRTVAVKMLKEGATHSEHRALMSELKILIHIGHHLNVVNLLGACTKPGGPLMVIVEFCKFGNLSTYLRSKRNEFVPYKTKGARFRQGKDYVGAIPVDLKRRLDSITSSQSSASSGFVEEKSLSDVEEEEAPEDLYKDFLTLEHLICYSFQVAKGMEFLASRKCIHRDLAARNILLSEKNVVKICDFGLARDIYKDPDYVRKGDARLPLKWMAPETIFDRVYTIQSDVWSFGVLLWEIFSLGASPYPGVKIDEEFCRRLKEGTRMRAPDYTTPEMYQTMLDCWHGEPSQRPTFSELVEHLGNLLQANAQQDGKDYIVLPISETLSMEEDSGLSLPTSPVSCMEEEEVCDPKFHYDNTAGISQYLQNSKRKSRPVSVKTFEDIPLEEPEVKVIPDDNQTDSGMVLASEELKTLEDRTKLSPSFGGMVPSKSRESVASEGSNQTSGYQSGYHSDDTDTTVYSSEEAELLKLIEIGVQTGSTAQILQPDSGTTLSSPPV

[10] = test system: MCF7; experiment: Inhibition of VEGFR2 level in human MCF7 cells at 10 uM measured after 48 hrs by ELISA relative to control; format: functional; settings: MCF7, 48 h
[11] = test system: UACC-62; experiment: Growth inhibition of human UACC62 cells at 10 uM incubated for 48 hrs by sulforhodamine B assay relative to control; format: functional; settings: UACC-62, 48 h, read-out: GI
[12] = test system: OVCAR-8; experiment: Growth inhibition of human OVCAR8 cells at 10 uM incubated for 48 hrs by sulforhodamine B assay relative to control; format: functional; settings: OVCAR-8, 48 h, read-out: GI
[13] = test system: Hs-578T; experiment: Growth inhibition of human Hs578T cells at 10 uM incubated for 48 hrs by sulforhodamine B assay relative to control; format: functional; settings: read-out: GI
[14] = test system: PC-3; experiment: Growth inhibition of human PC3 cells at 10 uM incubated for 48 hrs by sulforhodamine B assay relative to control; format: functional; settings: PC-3, 48 h, read-out: GI
[15] = test system: NCI-H522; experiment: Growth inhibition of human NCI-H522 cells at 10 uM incubated for 48 hrs by sulforhodamine B assay relative to control; format: functional; settings: NCI-H522, 48 h, read-out: GI
[16] = test system: SK-MEL-5; experiment: Growth inhibition of human SK-MEL-5 cells at 10 uM incubated for 48 hrs by sulforhodamine B assay relative to control; format: functional; settings: SK-MEL-5, 48 h, read-out: GI
[17] = test system: HT-29; experiment: Growth inhibition of human HT-29 cells at 10 uM incubated for 48 hrs by sulforhodamine B assay relative to control; format: functional; settings: HT-29, 48 h, read-out: GI
[18] = test system: SR; experiment: Growth inhibition of human SR cells at 10 uM incubated for 48 hrs by sulforhodamine B assay relative to control; format: functional; settings: read-out: GI
[19] = test system: SNB-75; experiment: Growth inhibition of human SNB75 cells at 10 uM incubated for 48 hrs by sulforhodamine B assay relative to control; format: functional; settings: SNB-75, 48 h, read-out: GI
[20] = test system: BT-549; experiment: Growth inhibition of human BT549 cells at 10 uM incubated for 48 hrs by sulforhodamine B assay relative to control; format: functional; settings: BT-549, 48 h, read-out: GI
[21] = test system: NCI-H23; experiment: Growth inhibition of human NCI-H23 cells at 10 uM incubated for 48 hrs by sulforhodamine B assay relative to control; format: functional; settings: NCI-H23, 48 h, read-out: GI
[22] = test system: HCT-116; experiment: Growth inhibition of human HCT116 cells at 10 uM incubated for 48 hrs by sulforhodamine B assay relative to control; format: functional; settings: HCT-116, 48 h, read-out: GI
[23] = test system: T47D; experiment: Cytotoxicity against human T47D cells expressing wild type BRAF measured after 48 hrs by sulforhodamine B assay; format: functional, cell-based
[24] = test system: OVCAR-4; experiment: Growth inhibition of human OVCAR4 cells at 10 uM incubated for 48 hrs by sulforhodamine B assay relative to control; format: functional; settings: OVCAR-4, 48 h, read-out: GI
[25] = test system: A498; experiment: Growth inhibition of human A498 cells at 10 uM incubated for 48 hrs by sulforhodamine B assay relative to control; format: functional; settings: A498, 48 h, read-out: GI
[26] = test system: SF-539; experiment: Growth inhibition of human SF539 cells at 10 uM incubated for 48 hrs by sulforhodamine B assay relative to control; format: functional; settings: SF-539, 48 h, read-out: GI
[27] = test system: MDA-MB-231; experiment: Growth inhibition of human MDA-MB-231 cells at 10 uM incubated for 48 hrs by sulforhodamine B assay relative to control; format: functional; settings: MDA-MB-231, 48 h, read-out: GI
[28] = test system: M14; experiment: Growth inhibition of human M14 cells at 10 uM incubated for 48 hrs by sulforhodamine B assay relative to control; format: functional; settings: M14, 48 h, read-out: GI
[29] = test system: EKVX; experiment: Growth inhibition of human EKVX cells at 10 uM incubated for 48 hrs by sulforhodamine B assay relative to control; format: functional; settings: read-out: GI
[30] = test system: SN12C; experiment: Growth inhibition of human SN12C cells at 10 uM incubated for 48 hrs by sulforhodamine B assay relative to control; format: functional; settings: read-out: GI
[31] = test system: SNB-19; experiment: Growth inhibition of human SNB19 cells at 10 uM incubated for 48 hrs by sulforhodamine B assay relative to control; format: functional; settings: SNB-19, 48 h, read-out: GI
[32] = test system: RPMI-8226; experiment: Growth inhibition of human RPMI8226 cells at 10 uM incubated for 48 hrs by sulforhodamine B assay relative to control; format: functional; settings: RPMI-8226, 48 h, read-out: GI
[33] = test system: K562; experiment: Growth inhibition of human K562 cells at 10 uM incubated for 48 hrs by sulforhodamine B assay relative to control; format: functional; settings: K562, 48 h, read-out: GI
[34] = test system: NCI-H460; experiment: Growth inhibition of human NCI-H460 cells at 10 uM incubated for 48 hrs by sulforhodamine B assay relative to control; format: functional; settings: NCI-H460, 48 h, read-out: GI
[35] = test system: IGROV-1; experiment: Growth inhibition of human IGROV1 cells at 10 uM incubated for 48 hrs by sulforhodamine B assay relative to control; format: functional; settings: IGROV-1, 48 h, read-out: GI
[36] = test system: CAKI-1; experiment: Growth inhibition of human Caki1 cells at 10 uM incubated for 48 hrs by sulforhodamine B assay relative to control; format: functional; settings: CAKI-1, 48 h, read-out: GI
[37] = test system: LOX IMVI; experiment: Growth inhibition of human LOXIMVI cells at 10 uM incubated for 48 hrs by sulforhodamine B assay relative to control; format: functional; settings: read-out: GI
[38] = test system: T47D; experiment: Growth inhibition of human T47D cells at 10 uM incubated for 48 hrs by sulforhodamine B assay relative to control; format: functional; settings: read-out: GI
[39] = test system: MDA-MB-435; experiment: Growth inhibition of human MDA-MB-435 cells at 10 uM incubated for 48 hrs by sulforhodamine B assay relative to control; format: functional; settings: MDA-MB-435, 48 h, read-out: GI
[40] = test system: NCI/ADR-RES; experiment: Growth inhibition of human NCI/ADR-RES cells at 10 uM incubated for 48 hrs by sulforhodamine B assay relative to control; format: functional; settings: read-out: GI
[41] = test system: RXF 393; experiment: Growth inhibition of human RXF393 cells at 10 uM incubated for 48 hrs by sulforhodamine B assay relative to control; format: functional; settings: RXF 393, 48 h, read-out: GI
[42] = test system: OVCAR-3; experiment: Growth inhibition of human OVCAR3 cells at 10 uM incubated for 48 hrs by sulforhodamine B assay relative to control; format: functional; settings: OVCAR-3, 48 h, read-out: GI
[43] = test system: NCI-H226; experiment: Growth inhibition of human NCI-H226 cells at 10 uM incubated for 48 hrs by sulforhodamine B assay relative to control; format: functional; settings: NCI-H226, 48 h, read-out: GI
[44] = test system: KM12; experiment: Growth inhibition of human KM12 cells at 10 uM incubated for 48 hrs by sulforhodamine B assay relative to control; format: functional; settings: KM12, 48 h, read-out: GI

SMILES: COc1ccc(C(=O)CSc2nccc(Nc3cccc(C(C)=O)c3)n2)cc1
- IC50 [1]: 67.1 µM
- inhibition of growth at 10 µM [2]: 22%
- inhibition of growth at 10 µM [3]: 46%
- inhibition of growth at 10 µM [4]: 11%
- inhibition of growth at 10 µM [5]: 53%
- inhibition of growth at 10 µM [6]: 24%
- inhibition of growth at 10 µM [7]: 55%
- inhibition of growth at 10 µM [8]: 34%
- IC50 [9]: 0.42 µM
- inhibition at 10 µM [10]: 16%
- inhibition of growth at 10 µM [11]: 35%
- inhibition of growth at 10 µM [12]: 32%
- inhibition of growth at 10 µM [13]: 19%
- inhibition of growth at 10 µM [14]: 37%
- inhibition of growth at 10 µM [15]: 37%
- inhibition of growth at 10 µM [16]: 22%
- inhibition of growth at 10 µM [17]: 11%
- inhibition of growth at 10 µM [18]: 35%
- inhibition of growth at 10 µM [19]: 31%
- inhibition of growth at 10 µM [20]: 27%
- inhibition of growth at 10 µM [21]: 19%
- inhibition of growth at 10 µM [22]: 23%
- IC50 [23]: 13.2 µM
- inhibition of growth at 10 µM [24]: 19%
- inhibition of growth at 10 µM [25]: 22%
- inhibition of growth at 10 µM [26]: 12%
- inhibition of growth at 10 µM [27]: 27%
- inhibition of growth at 10 µM [28]: 15%
- inhibition of growth at 10 µM [29]: 29%
- inhibition of growth at 10 µM [30]: 22%
- inhibition of growth at 10 µM [31]: 13%
- inhibition of growth at 10 µM [32]: 42%
- inhibition of growth at 10 µM [33]: 37%
- inhibition of growth at 10 µM [34]: 14%
- inhibition of growth at 10 µM [35]: 18%
- inhibition of growth at 10 µM [36]: 35%
- inhibition of growth at 10 µM [37]: 23%
- inhibition of growth at 10 µM [38]: 45%
- inhibition of growth at 10 µM [39]: 15%
- inhibition of growth at 10 µM [40]: 40%
- inhibition of growth at 10 µM [41]: 14%
- inhibition of growth at 10 µM [42]: 12%
- inhibition of growth at 10 µM [43]: 35%
- inhibition of growth at 10 µM [44]: 15%
